Measured values: patent publication US20220023306A1, “USE OF A PPAR-DELTA AGONIST IN THE TREATMENT OF FATTY ACID OXIDATION DISORDERS (FAOD)” (Reneo Pharmaceuticals, Inc., priority 2019, published 2022)

Key:
[1] = tested on: very long-chain acyl-CoA dehydrogenase (VLCAD); experiment: VLCAD enzymatic activity in cultured fibroblasts from symptomatic VLCAD-deficient FAOD patients (ETF fluorescence reduction ACAD activity assay); type: cell-based, human; settings: cultured fibroblasts from symptomatic patients with VLCAD deficiency
Description: Subjects. Skin biopsies for fibroblast culture are performed on a clinical basis with written informed consent from subjects and/or legal guardians. Fibroblast cells with mutations in any one of the genes and/or proteins associated with a fatty acid oxidation disorder (FAOD) ae obtained from patients' skin biopsies, while wild type (WT) fibroblast cells are obtained from healthy individuals.
Fibroblast cells, in some cases, are obtained from subjects with a confirmed diagnosis of a fatty acid oxidation disorder (FAOD) (e.g. MCAD, VLCAD, CPT1, CACT, CPT2, LCHAD, and/or mitochondrial TFP deficiencies or mutations) or they, in some cases, are purchased is available from commercial sources, e.g. from the Coriell Institute for Medical Research (403 Haddon Avenue, Camden, N.J. 08103).
Cell culture and treatments. Cells are grown in Dulbecco's Modified Eagle Medium (DMEM), Corning Life Sciences, Manassas, Va., containing high glucose levels or in DMEM devoid of glucose for 48-72 hr. Both media are supplemented with fetal bovine serum, glutamine, penicillin and/or streptomycin. In some experiments, fibroblasts are incubated with N-acetylcysteine, resveratrol, mitoQ, Trolox (a hydro-soluble analogue of vitamin E), or bezafibrate, prior to the analysis of parameters.
A PPARδ agonist compound is dissolved in phosphate buffer saline, PBS, as a stock solution. […]

human muscle cell lines = experiment: fatty acid oxidation in human muscle cell lines; type: cell-based
hPPARγ = biological target: T1, hPPARγ (Homo sapiens, UniProt P37231); experiment: PPAR transient transactivation assay, hPPARγ; type: cell-based
T1 construct: expressed in transfected cells; host or cells: HEK293
T1 sequence (P37231 238-503 limits assumed): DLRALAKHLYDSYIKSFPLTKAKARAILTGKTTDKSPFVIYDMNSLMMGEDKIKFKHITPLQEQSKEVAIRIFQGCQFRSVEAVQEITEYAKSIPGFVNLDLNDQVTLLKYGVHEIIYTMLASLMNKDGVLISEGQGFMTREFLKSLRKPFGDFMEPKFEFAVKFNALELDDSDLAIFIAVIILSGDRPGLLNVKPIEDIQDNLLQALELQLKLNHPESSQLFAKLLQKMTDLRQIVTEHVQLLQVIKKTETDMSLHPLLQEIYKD
Description: “Activation” herein is defined as the abovementioned downstream response, which in the case of PPAR's is gene transcription. Gene transcription, in some cases, is measured indirectly as downstream production of proteins reflective of the activation of the particular PPAR subtype under study. Alternatively, an artificial reporter construct, in some cases, is employed to study the activation of the individual PPAR's expressed in cells. The ligand binding domain of the particular receptor to be studied, in some embodiments, is fused to the DNA binding domain of a transcription factor, which produces convenient laboratory readouts, such as the yeast GAL4 transcription factor DNA binding domain. The fusion protein, in some cases, is transfected into a laboratory cell line along with a Gal4 enhancer, which effects the expression of the luciferase protein. When such a system is transfected into a laboratory cell line, binding of a receptor agonist to the fusion protein will result in light emission.
The PPAR transient transactivation assay, in some cases, is based on transient transfection into human HEK293 cells of two plasmids encoding a chimeric test protein and a reporter protein respectively. […] The amount of luciferase protein is measured by light emission after addition of the appropriate substrate. […]

SMILES: Cc1cc(OC/C=C(/c2ccc(F)cc2)c2ccc(C#CCN3CCOCC3)cc2)ccc1OCC(=O)O [Compound 1, (E)-[4-[3-(4-Fluorophenyl)-3-[4-[3-(morpholin-4-yl)propynyl]phenyl]allyloxy]-2-methyl-phenoxy]acetic acid]
- VLCAD enzymatic activity [1]: increased
- fatty acid oxidation (human muscle cell lines): dose-dependent increase
- activity on PPARγ in transactivation assays (hPPARγ): negligible activity
- type of agonism on PPARγ (hPPARγ): partial agonist
